In patent publication US8828992B2, “Substituted azole derivatives, pharmaceutical composition containing the derivatives, and method for treating Parkinson's disease using the same” (priority 2009, dated 2014):
Like-named read-outs stand apart in the source and are kept apart here.

Target: T1, Monoamineoxidase B type human-derived enzyme (Homo sapiens, UniProt P27338)
T1 sequence (P27338 1-520): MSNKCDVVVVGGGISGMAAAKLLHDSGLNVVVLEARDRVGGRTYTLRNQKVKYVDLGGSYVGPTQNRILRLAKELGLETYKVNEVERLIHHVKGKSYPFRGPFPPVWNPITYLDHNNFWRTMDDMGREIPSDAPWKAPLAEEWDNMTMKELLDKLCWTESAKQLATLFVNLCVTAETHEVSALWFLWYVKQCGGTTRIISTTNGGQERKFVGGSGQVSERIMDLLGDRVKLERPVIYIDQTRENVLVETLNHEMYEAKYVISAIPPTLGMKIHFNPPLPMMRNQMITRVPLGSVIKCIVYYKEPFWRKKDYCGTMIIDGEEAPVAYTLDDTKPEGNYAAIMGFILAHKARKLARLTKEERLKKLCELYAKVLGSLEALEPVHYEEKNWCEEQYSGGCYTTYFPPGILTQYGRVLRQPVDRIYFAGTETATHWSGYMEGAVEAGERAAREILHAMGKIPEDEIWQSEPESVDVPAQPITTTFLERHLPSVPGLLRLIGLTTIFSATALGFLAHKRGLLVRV
Test: Inhibitory effects on the activity of MAO-B (Amplex Red fluorescence, benzylamine substrate)
Type: biochemical
Conditions: for inhibition at 0.01 µM: read-out: Inhibitory effects (%) on the activity of MAO-B
Protocol: Monoamineoxidase A or B type human-derived enzyme (5 mg/ml) was each diluted with 0.05 M sodium phosphate buffer (pH 7.4) to yield a dilution of 1:200, and then 100 μl of an enzyme buffer containing 2 μl of a compound 1 solution at the corresponding concentration was placed in a test plate (flat-bottom) and incubated for 30 minutes.
100 μl of a working buffer containing 400 μM of Amplex Red reagent, 2 U/ml horseradish peroxidase, and 2 mM substrate (tyramine for MAO-A and benzylamine for MAO-B) in 0.05 M sodium phosphate buffer (pH 7.4) was mixed with a pre-incubated enzyme buffer at 1:1 and measured using fluorescence (EX: 563 nm & EM: 587 nm) for 30 minutes.

For “3-[4-(3-chloro-benzyloxy)-phenyl]-isoxazol-5-ylmethyl ester [Example 20]”, the “Inhibitory effects (%) on the activity of MAO-B” value (treatment concentration 10 nM) was 96.2%.
With “3-[4-(4-methyl-benzyloxy)-phenyl]-isoxazol-5-ylmethyl ester [Example 28]” the “Inhibitory effects (%) on the activity of MAO-B” value (treatment concentration 10 nM) was 87.4%.
Molecule `NC(=O)OCc1nc(-c2ccc(OCc3ccccc3)cc2)ns1` [Example 4, carbamic acid 3-(4-benzyloxy-phenyl)-[1,2,4]thiadiazol-5-ylmethyl ester] has an inhibition at 0.01 µM of 92%.
In the case of `NC(=O)OCc1cc(-c2ccc(OCc3ccccc3)cc2Cl)no1` [Example 5, carbamic acid 3-(4-benzyloxy-2-chloro-phenyl)-isoxazol-5-ylmethyl ester], the inhibition at 0.01 µM (treatment concentration 10 nM) is reported as 88.3%.
Molecule `NC(=O)OCc1cc(-c2ccc(OCc3ccccc3)c(Cl)c2)no1` [Example 7, carbamic acid 3-(4-benzyloxy-3-chloro-phenyl)-isoxazol-5-ylmethyl ester] has an inhibition at 0.01 µM (treatment concentration 10 nM) of 75.9%.
With `NC(=O)OCc1cc(-c2ccc(OCc3ccccc3)c(F)c2)no1` [Example 8, carbamic acid 3-(4-benzyloxy-3-fluoro-phenyl)-isoxazol-5-ylmethyl ester] the inhibition at 0.01 µM (treatment concentration 10 nM) was 72.7%.
Work on `CC(Oc1ccc(-c2cc(COC(N)=O)on2)cc1)c1ccccc1` (stereo not drawn) [Example 10, carbamic acid 3-[4-(1-phenyl-ethoxy)-phenyl]-isoxazol-5-ylmethyl ester] yielded an inhibition at 0.01 µM (treatment concentration 10 nM) of 98.2%.
`NC(=O)OCc1cc(-c2ccc(OCc3ccc(F)cc3)cc2)no1` [Example 13, carbamic acid 3-[4-(4-fluoro-benzyloxy)-phenyl]-isoxazol-5-ylmethyl ester] gave an inhibition at 0.01 µM (treatment concentration 10 nM) of 102%.
For `NC(=O)OCc1cc(-c2ccc(OCc3cccc(F)c3F)cc2)no1` [Example 15, carbamic acid 3-[4-(2,3-difluoro-benzyloxy)-phenyl]-isoxazol-5-ylmethyl ester], the inhibition at 0.01 µM (treatment concentration 10 nM) was 96.2%.
Work on `NC(=O)OCc1cc(-c2ccc(OCc3cc(F)cc(F)c3)cc2)no1` [Example 16, carbamic acid 3-[4-(3,5-difluoro-benzyloxy)-phenyl]-isoxazol-5-ylmethyl ester] yielded an inhibition at 0.01 µM (treatment concentration 10 nM) of 96.5%.
`NC(=O)OCc1cc(-c2ccc(OCc3ccc(F)c(F)c3)cc2)no1` [Example 17, carbamic acid 3-[4-(3,4-difluoro-benzyloxy)-phenyl]-isoxazol-5-ylmethyl ester] was tested, and the inhibition at 0.01 µM (treatment concentration 10 nM) was 96.8%.
`NC(=O)OCc1cc(-c2ccc(OCc3c(F)cc(F)cc3F)cc2)no1` [Example 18, carbamic acid 3-[4-(2,4,6-trifluoro-benzyloxy)-phenyl]-isoxazol-5-ylmethyl ester] was tested, and the inhibition at 0.01 µM (treatment concentration 10 nM) was 91.5%.
With `NC(=O)OCc1cc(-c2ccc(OCc3cccc(C(F)(F)F)c3)cc2)no1` [Example 19, carbamic acid 3-[4-(3-trifluoromethyl-benzyloxy)-phenyl]-isoxazol-5-ylmethyl ester] the inhibition at 0.01 µM (treatment concentration 10 nM) was 94.2%.
`NC(=O)OCc1cc(-c2ccc(OCc3ccccc3Cl)cc2)no1` [Example 21, carbamic acid 3-[4-(2-chloro-benzyloxy)-phenyl]-isoxazol-5-ylmethyl ester] showed an inhibition at 0.01 µM (treatment concentration 10 nM) of 92.9%.
With `NC(=O)OCc1cc(-c2ccc(OCc3ccc(Cl)cc3)cc2)no1` [Example 22, carbamic acid 3-[4-(4-chloro-benzyloxy)-phenyl]-isoxazol-5-ylmethyl ester] the inhibition at 0.01 µM (treatment concentration 10 nM) was 86%.
With `NC(=O)OCc1cc(-c2ccc(OCc3c(Cl)cccc3Cl)cc2)no1` [Example 23, carbamic acid 3-[4-(2,6-dichlorobenzyloxy)-phenyl]-isoxazol-5-ylmethyl ester] the inhibition at 0.01 µM (treatment concentration 10 nM) was 92.7%.
`NC(=O)OCc1cc(-c2ccc(OCc3cc(Cl)ccc3Cl)cc2)no1` [Example 24, carbamic acid 3-[4-(2,5-di-chloro-benzyloxy)-phenyl]-isoxazol-5-ylmethyl ester] was tested, and the inhibition at 0.01 µM (treatment concentration 10 nM) was 83.3%.
With `NC(=O)OCc1cc(-c2ccc(OCc3cc(F)ccc3Cl)cc2)no1` [Example 25, carbamic acid 3-[4-(2-chloro-5-fluoro-benzyloxy)-phenyl]-isoxazol-5-ylmethyl ester] the inhibition at 0.01 µM (treatment concentration 10 nM) was 83.2%.
`NC(=O)OCc1cc(-c2ccc(OCc3cccc([N+](=O)[O-])c3)cc2)no1` [Example 26, carbamic acid 3-[4-(3-nitro-benzyloxy)-phenyl]-isoxazol-5-ylmethyl ester] was tested, and the inhibition at 0.01 µM (treatment concentration 10 nM) was 87.3%.
`COC(=O)c1ccc(COc2ccc(-c3cc(COC(N)=O)on3)cc2)cc1` [Example 27, 4-[4-(5-carbamoyloxymethyl-isoxazol-3-yl)-phenoxymethyl]-benzoic acid methyl ester] was tested, and the inhibition at 0.01 µM (treatment concentration 10 nM) was 75.2%.
`Cc1ccccc1COc1ccc(-c2cc(COC(N)=O)on2)cc1` [Example 29, carbamic acid 3-[4-(2-methyl-benzyloxy)-phenyl]-isoxazol-5-ylmethyl ester] gave an inhibition at 0.01 µM (treatment concentration 10 nM) of 80.3%.
With `COc1cccc(COc2ccc(-c3cc(COC(N)=O)on3)cc2)c1` [Example 30, Carbamic acid 3-[4-(3-methoxy-benzyloxy)-phenyl]-isoxazol-5-ylmethyl ester] the inhibition at 0.01 µM (treatment concentration 10 nM) was 90.2%.
With `NC(=O)OCc1cc(-c2ccc(OCc3cccc(C(F)(F)F)c3)cc2)no1` [Example 31, Carbamic acid 3-[4-(3-trifluoromethyl-benzyloxy)-phenyl]-isoxazol-5-ylmethyl ester] the inhibition at 0.1 µM (treatment concentration 100 nM) was 96.2%.
For `CC(C)c1ccc(COc2ccc(-c3cc(COC(N)=O)on3)cc2)cc1` [Example 32, Carbamic acid 3-[4-(4-isopropyl-benzyloxy)-phenyl]-isoxazol-5-ylmethyl ester], the inhibition at 0.01 µM (treatment concentration 10 nM) was 84.4%.
Work on `NC(=O)OCc1cc(-c2ccc(OCc3cccc(C=O)c3)cc2)no1` [Example 35, carbamic acid 3-[4-(3-formyl-benzyloxy)-phenyl]-isoxazol-5-ylmethyl ester] yielded an inhibition at 0.01 µM (treatment concentration 10 nM) of 90.4%.
Molecule `NC(=O)OCc1cc(-c2ccc(OCc3ccc(C=O)cc3)cc2)no1` [Example 36, carbamic acid 3-[4-(4-formyl-benzyloxy)-phenyl]-isoxazol-5-ylmethyl ester] has an inhibition at 0.01 µM (treatment concentration 10 nM) of 90.1%.
`CCCOc1ccc(-c2cc(COC(N)=O)on2)cc1` [Example 42, carbamic acid 3-(4-propoxy-phenyl)-isoxazol-5-ylmethyl ester] was tested, and the inhibition at 0.01 µM was 85.3%.
Molecule `CCCCCOc1ccc(-c2cc(COC(N)=O)on2)cc1` [Example 44, carbamic acid 3-(4-pentoxy-phenyl)-isoxazol-5-ylmethyl ester] has an inhibition at 0.01 µM of 74.3%.
For `CCOC(=O)COc1ccc(-c2cc(COC(N)=O)on2)cc1` [Example 47, [4-(5-carbamoyloxymethyl-isoxazol-3-yl)-phenoxy]-acetic acid ethyl ester], the inhibition at 0.01 µM was 41.2%.
Work on `NC(=O)OCCCOc1ccc(-c2cc(COC(N)=O)on2)cc1` [Example 52, carbamic acid 3-[4-(5-carbamoyloxymethyl-isoxazol-3-yl)-phenoxy]-propyl ester] yielded an inhibition at 0.01 µM of 26.6%.
`NC(=O)OCc1cc(-c2ccc(OCCCCO)cc2)no1` [Example 57, carbamic acid 3-[4-(4-hydroxy-butoxy)-phenyl]-isoxazol-5-ylmethyl ester] was tested, and the inhibition at 0.01 µM was 25%.
In the case of `NC(=O)OCc1cc(-c2ccc(OCCCC(F)(F)F)cc2)no1` [Example 59, carbamic acid 3-[4-(4,4,4-trifluoro-butoxy)-phenyl]-isoxazol-5-ylmethyl ester], the inhibition at 0.01 µM is reported as 97.4%.
For `NC(=O)OCc1cc(-c2ccc(OCc3nc4ccccc4s3)cc2)no1` [Example 64, Carbamic acid 3-[4-(benzothiazol-2-ylmethoxy)-phenyl]-isoxazol-5-ylmethyl ester], the inhibition at 0.01 µM (treatment concentration 10 nM) was 32.8%.
`COc1c(C)cc(COc2ccc(-c3cc(COC(N)=O)on3)cc2)nc1C` [Example 68, Carbamic acid 3-[4-(5-methoxy-4,6-dimethyl-pyridin-2-ylmethoxy)-phenyl]-isoxazol-5-ylmethyl ester] was tested, and the inhibition at 0.01 µM (treatment concentration 10 nM) was 63.4%.
Work on `NC(=O)OCc1cc(-c2ccc(OCc3ccc4ccccc4n3)cc2)no1` [Example 70, Carbamic acid 3-[4-(quinolin-2-ylmethoxy)-phenyl]-isoxazol-5-ylmethyl ester] yielded an inhibition at 0.01 µM (treatment concentration 10 nM) of 27.1%.
Molecule `COC(=O)c1ccc(COc2ccc(-c3cc(COC(N)=O)on3)cc2)o1` [Example 73, 5-[4-(5-carbamoyloxymethyl-isoxazol-3-yl)-phenoxymethyl]-furan-2-carboxylic acid methyl ester] has an inhibition at 0.01 µM (treatment concentration 10 nM) of 58.1%.
With `NC(=O)OCc1cc(-c2ccc(NCc3ccc(F)cc3)cc2)no1` [Example 76, Carbamic acid 3-[4-(4-fluoro-benzylamino)-phenyl]-isoxazol-5-ylmethyl ester] the inhibition at 0.01 µM (treatment concentration 10 nM) was 87%.
`NC(=O)OCc1cc(-c2ccc(NCc3cccc(F)c3)cc2)no1` [Example 77, Carbamic acid 3-[4-(3-fluoro-benzylamino)-phenyl]-isoxazol-5-ylmethyl ester] was tested, and the inhibition at 0.01 µM (treatment concentration 10 nM) was 77.1%.
Work on `NC(=O)OCc1cc(-c2ccc(NCc3ccccc3F)cc2)no1` [Example 78, Carbamic acid 3-[4-(2-fluoro-benzylamino)-phenyl]-isoxazol-5-ylmethyl ester] yielded an inhibition at 0.01 µM (treatment concentration 10 nM) of 84.7%.
